Experimental data reported in patent US9828379B2 (priority 2013, dated 2017).

Key:
ABHD6 [1] = biological target: T1, ABHD6 (Mus musculus, UniProt Q8R2Y0); assay: In vitro competitive activity-based protein profiling (Table 2, % inhibition at 1 μM); format: biochemical; conditions: read-out: % Inhibition at 1 μM ABHD6
T1 sequence (Q8R2Y0 1-336): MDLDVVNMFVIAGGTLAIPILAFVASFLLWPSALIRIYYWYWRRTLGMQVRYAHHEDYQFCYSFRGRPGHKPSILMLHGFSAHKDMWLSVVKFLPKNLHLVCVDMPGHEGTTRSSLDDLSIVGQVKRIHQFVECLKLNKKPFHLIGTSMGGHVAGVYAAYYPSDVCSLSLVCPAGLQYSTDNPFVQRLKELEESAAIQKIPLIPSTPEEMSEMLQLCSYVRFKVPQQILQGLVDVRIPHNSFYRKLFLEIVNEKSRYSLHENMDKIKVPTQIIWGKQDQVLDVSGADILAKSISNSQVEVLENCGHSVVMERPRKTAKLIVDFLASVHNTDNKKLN

FAAH [2] = biological target: T2, FAAH (Mus musculus, UniProt O08914); assay: as above; format: biochemical; conditions: read-out: % Inhibition at 1 μM FAAH
T2 sequence (O08914 1-579): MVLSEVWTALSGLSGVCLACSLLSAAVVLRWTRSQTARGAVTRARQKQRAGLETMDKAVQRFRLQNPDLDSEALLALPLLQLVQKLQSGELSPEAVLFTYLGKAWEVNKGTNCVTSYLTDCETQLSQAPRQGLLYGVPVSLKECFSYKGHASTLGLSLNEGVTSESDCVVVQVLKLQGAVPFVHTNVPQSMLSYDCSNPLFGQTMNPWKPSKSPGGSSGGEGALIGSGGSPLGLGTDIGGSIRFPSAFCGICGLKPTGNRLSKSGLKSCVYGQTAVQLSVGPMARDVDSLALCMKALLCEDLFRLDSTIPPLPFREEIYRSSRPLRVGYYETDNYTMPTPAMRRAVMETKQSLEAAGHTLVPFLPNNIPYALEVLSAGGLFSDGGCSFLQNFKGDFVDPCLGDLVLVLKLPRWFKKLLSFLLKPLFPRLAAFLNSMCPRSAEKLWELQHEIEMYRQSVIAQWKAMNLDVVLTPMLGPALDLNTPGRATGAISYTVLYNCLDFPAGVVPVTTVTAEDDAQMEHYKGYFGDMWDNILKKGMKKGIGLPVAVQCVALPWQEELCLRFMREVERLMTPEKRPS

MAGL [3] = biological target: T3, MAGL (Mus musculus, UniProt O35678); assay: biochemical; conditions: mouse; in vitro competitive ABPP; read-out: Mouse (IC50 value, nM) MAGL
T3 sequence (O35678 1-303): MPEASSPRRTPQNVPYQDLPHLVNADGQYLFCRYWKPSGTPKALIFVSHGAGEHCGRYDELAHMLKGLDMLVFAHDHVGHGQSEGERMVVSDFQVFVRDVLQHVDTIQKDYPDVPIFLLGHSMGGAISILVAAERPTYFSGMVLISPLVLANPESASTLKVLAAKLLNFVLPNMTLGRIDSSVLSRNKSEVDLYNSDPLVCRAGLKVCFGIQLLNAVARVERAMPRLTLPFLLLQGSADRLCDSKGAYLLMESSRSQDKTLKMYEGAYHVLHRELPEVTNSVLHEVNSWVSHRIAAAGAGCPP

FAAH [4] = biological target: T2, FAAH; assay: biochemical; conditions: in vitro competitive ABPP
MAGL [5] = biological target: T3, MAGL; assay: In vitro competitive activity-based protein profiling (Table 2, % inhibition at 1 μM); format: biochemical; conditions: read-out: % Inhibition at 1 μM MAGL
Description: After 30 min, FP—Rh (1.0 μL, 50 μM in DMSO) was added and the mixture was incubated for another 30 min at 37° C. Reactions were quenched with SDS loading buffer (50 μL-4×) and run on SDS-PAGE.
Cell lysates were diluted with mock proteomes for use in competitive ABPP experiments.

ABHD6 [6] = biological target: T1, ABHD6; assay: biochemical; conditions: in vitro competitive ABPP

SMILES | inhibition at 1 µM (ABHD6 [1]) | inhibition at 1 µM (FAAH [2]) | IC50 (MAGL [3]) | IC50 (FAAH [4]) | inhibition at 1 µM (MAGL [5]) | IC50 (ABHD6 [6])
CCn1cc(CN2CC3CN(C(=O)OC(C(F)(F)F)C(F)(F)F)CC3C2)c(C(=O)NC2CC2)n1 (stereo not drawn) [Example 77, 1,1,1,3,3,3-Hexafluoropropan-2-yl 5-((3-(cyclopropylcarbamoyl)-1-ethyl-1H-pyrazol-4-yl)methyl)hexahydropyrrolo[3,4-c]pyrrole-2(1H)-carboxylate] | < 25% | < 25% | 100 to 1000 nM | > 10000 nM | > 75% | 1000 to 10000 nM
Cc1c(CN2CC3CN(C(=O)OC(C(F)(F)F)C(F)(F)F)CC3C2)cccc1N1CCN(S(C)(=O)=O)CC1 (stereo not drawn) [Example 150, 1,1,1,3,3,3-hexafluoropropan-2-yl 5-[[3-(4-methanesulfonylpiperazin-1-yl)-2-methylphenyl]methyl]-octahydropyrrolo[3,4-c]pyrrole-2-carboxylate] | < 25% | 25 to 75% | < 100 nM | 1000 to 10000 nM | > 75% | 1000 to 10000 nM
O=C(ON1C(=O)CCC1=O)N1CC2CN(Cc3cccc(Cl)c3N3CCC(F)CC3)CC2C1 (stereo not drawn) [Example 160, 2,5-dioxopyrrolidin-1-yl 5-[[3-chloro-2-(4-fluoropiperidin-1-yl)phenyl]methyl]-octahydropyrrolo[3,4-c]pyrrole-2-carboxylate] | 25 to 75% | 25 to 75% | 100 to 1000 nM | 1000 to 10000 nM | > 75% | 1000 to 10000 nM
CCN1CCN(c2cccc(CN3CC4CN(C(=O)OC(C(F)(F)F)C(F)(F)F)CC4C3)c2C)CC1 (stereo not drawn) [Example 155, 1,1,1,3,3,3-hexafluoropropan-2-yl 5-[[3-(4-ethylpiperazin-1-yl)-2-methylphenyl]methyl]-octahydropyrrolo[3,4-c]pyrrole-2-carboxylate] | 25 to 75% | 25 to 75% | 100 to 1000 nM | 1000 to 10000 nM | > 75% | 1000 to 10000 nM
O=C(OC(C(F)(F)F)C(F)(F)F)N1CC2CN(Cc3ccccc3-c3ccccc3)CC2C1 (stereo not drawn) [Example 12, 1,1,1,3,3,3-Hexafluoropropan-2-yl 5-[(2-phenylphenyl)methyl]-octahydropyrrolo[3,4-c]pyrrole-2-carboxylate] | < 25% | 25 to 75% | < 100 nM | 1000 to 10000 nM | > 75% | > 10000 nM
C#CCNC(=O)c1nn(CC)cc1CN1CC2CN(C(=O)OC(C(F)(F)F)C(F)(F)F)CC2C1 (stereo not drawn) [Example 178, 1,1,1,3,3,3-hexafluoropropan-2-yl 5-((1-ethyl-3-(prop-2-yn-1-ylcarbamoyl)-1H-pyrazol-4-yl)methyl)hexahydropyrrolo[3,4-c]pyrrole-2(1H)-carboxylate] | < 25% | < 25% | 100 to 1000 nM | > 10000 nM | > 75% | 1000 to 10000 nM
CC(=O)N1CCN(c2cc(Cl)ccc2CN2CC3CN(C(=O)OC(C(F)(F)F)C(F)(F)F)CC3C2)CC1 (stereo not drawn) [Example 21, 1,1,1,3,3,3-Hexafluoropropan-2-yl 5-[[2-(4-acetylpiperazin-1-yl)-4-chlorophenyl]methyl]-octahydropyrrolo[3,4-c]pyrrole-2-carboxylate] | 25 to 75% | 25 to 75% | < 100 nM | 1000 to 10000 nM | > 75% | 100 to 1000 nM
O=C(OC(C(F)(F)F)C(F)(F)F)N1CC2CN(Cc3ccc(N4CCOCC4)cc3C(F)(F)F)CC2C1 (stereo not drawn) [Example 10, 1,1,1,3,3,3-Hexafluoropropan-2-yl 5-[[4-(morpholin-4-yl)-2-(trifluoromethyl)phenyl]methyl]-octahydropyrrolo[3,4-c]pyrrole-2-carboxylate] | < 25% | 25 to 75% | < 100 nM | 100 to 1000 nM | > 75% | 1000 to 10000 nM
